Measured values published in publication PMC8634879, “Design, Synthesis, and Biological Evaluation of Pyrano[2,3-c]-pyrazole–Based RalA Inhibitors Against Hepatocellular Carcinoma” (Frontiers in Chemistry, 2021).

Legend:
RalA = biological target: T1, RalA (Homo sapiens, UniProt P11233); test: ELISA-based RalA activity assay (RalBP1-coated plates, lysates of compound-treated cells); type: biochemical; conditions: 1 μM compound; % control = activity remained
T1 construct: expressed in transfected cells; host or cells: HepG2 (from b6; the methods paragraph names no cell line)
T1 sequence (P11233 1-203 limits assumed): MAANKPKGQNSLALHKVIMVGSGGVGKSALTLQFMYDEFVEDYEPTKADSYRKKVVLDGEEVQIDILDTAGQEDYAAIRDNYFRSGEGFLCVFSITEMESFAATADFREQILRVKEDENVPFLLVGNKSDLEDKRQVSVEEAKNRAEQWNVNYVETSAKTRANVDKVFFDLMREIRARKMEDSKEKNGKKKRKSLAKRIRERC
Method: (§1) The in vitro RalA/B bioactivity assays were performed following methods outlined in previous reports. ([Yan et al., 2016]; [Zhang et al., 2018]; [Walsh et al., 2019]; [Bum-Erdene et al., 2020]). In brief, the lysates of the test compound or vehicle-treated cells were cleared using cold centrifugation, and supernatants were collected. An RalBP1 solution was added to 96-well plates and incubated for 1–2 h, and then the plates were washed thrice using ELISA buffer. Next, cellular lysates were added, and samples were incubated overnight at 4°C. Then, ice-cold mouse anti-FLAG antibody was added, and samples were incubated for one more hour. After subsequent washing with ELISA buffer thrice, the HRP-conjugated anti-mouse antibody was added, and samples were incubated for another hour. Then, the HRP substrate was added. Antigen–antibody reactions were quenched by the addition of sulfuric acid (2 mol/L). Remaining RalA/B was detected by the OD450 values which were collected by using a plate reader. Cell proliferation assays, colony formation assays, apoptosis assays, GST pulldown, and Western blotting were used following methods outlined in our previous reports. ([Zhou et al., 2015]; [Zhang et al., 2016]; [Yang et al., 2017]; [He et al., 2019]). Autophagy levels and protein immunoblotting were used following the methods mentioned in our previous reports ([Pan et al., 2018]; [Wang et al., 2018]; [Hao et al., 2019]; [Wang et al., 2019]; [Peng et al., 2020]). Detailed experimental procedures are described in supporting materials.

Huh-7 cells = test: Cell proliferation assay (MTT), Huh-7; type: cell-based; conditions: Homo sapiens, Table 1, cell proliferation inhibition, read-out: IC50 (μM) Huh7
Method: (§2) The antibodies recognizing LC3, p62/SQSTM1, RalA, RalB, and GAPDH were purchased from Proteintech (Wuhan, China). HCC cell lines, including HepG2, Hep3B, Huh-7, and SMMC-7721, were obtained from the Chinese Center for Type Culture Collection (Wuhan, China) and cultured in DMEM (Dulbecco’s modified Eagle’s medium) with 10% FBS (fetal bovine serum) and streptomycin. Cytotoxicity assays were performed by using the MTT method as previously described.
as §1

HepG2 cells = test: Cell proliferation assay (MTT), HepG2; type: cell-based; conditions: Homo sapiens, HepG2, Table 1, cell proliferation inhibition; read-out: IC50 (μM) HepG2
Method: as §2, §1

RalB = biological target: T2, RalB (Homo sapiens, UniProt P11234); test: ELISA-based RalB activity assay (RalBP1-coated plates, lysates of compound-treated cells); type: biochemical; conditions: 1 μM compound; % control = active (RalBP1-bound) RalB remaining
T2 construct: expressed in transfected cells; host or cells: HepG2 (from b6; the methods paragraph names no cell line)
T2 sequence (P11234 1-203 limits assumed): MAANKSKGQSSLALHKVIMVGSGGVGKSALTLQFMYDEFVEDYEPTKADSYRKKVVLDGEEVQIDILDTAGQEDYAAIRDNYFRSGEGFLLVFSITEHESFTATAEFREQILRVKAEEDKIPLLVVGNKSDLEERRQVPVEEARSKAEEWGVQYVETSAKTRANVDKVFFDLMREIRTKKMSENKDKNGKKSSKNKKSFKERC
Method: as §1

Row | SMILES | melting point [°C] | remaining activity at 1 µM (RalA) [%] | IC50 (Huh-7 cells) [µM] | IC50 (HepG2 cells) [µM] | remaining activity at 1 µM (RalB) [%]
1 | Cc1ccc(S(=O)(=O)NC2=C(C#N)C(c3ccccc3)c3c(C)nn(-c4ccccc4)c3O2)cc1 (stereo not drawn) [4a, N-(5-cyano-3-methyl-1,4-diphenyl-1,4-dihydropyrano[2,3-c]-pyrazole-6-yl)-4-methylbenzenesulfonamide] | 68.3 to 69.7 | 74 | > 10 | > 10 | 85
2 | COc1cccc(C2C(C#N)=C(NS(=O)(=O)c3cccc([N+](=O)[O-])c3)Oc3c2c(C)nn3-c2ccccc2Cl)c1 (stereo not drawn) [4aa, N-(1-(2-chlorophenyl)-5-cyano-4-(3-methoxyphenyl)-3-methyl-1,4-dihydropyrano[2,3-c]-pyrazol-6-yl)-3-nitrobenzenesulfonamide] | – | 72 | > 10 | > 10 | 73
3 | COc1cccc(C2C(C#N)=C(NS(=O)(=O)c3ccc([N+](=O)[O-])cc3)Oc3c2c(C)nn3-c2ccccc2Cl)c1 (stereo not drawn) [4ab, N-(1-(2-chlorophenyl)-5-cyano-4-(3-methoxyphenyl)-3-methyl-1,4-dihydropyrano[2,3-c]-pyrazol-6-yl)-4-nitrobenzenesulfonamide] | – | 60 | > 10 | > 10 | 65
4 | Cc1ccc(S(=O)(=O)NC2=C(C#N)C(c3ccccc3)c3c(C)nn(-c4ccc(Cl)cc4)c3O2)cc1 (stereo not drawn) [4ac, N-(1-(4-chlorophenyl)-5-cyano-3-methyl-4-phenyl-1,4-dihydropyrano[2,3-c]-pyrazol-6-yl)-4-methylbenzenesulfonamide] | 181.4 to 181.7 | 67 | > 10 | > 10 | 68
5 | Cc1ccc(S(=O)(=O)NC2=C(C#N)C(c3ccccc3)c3c(C)nn(-c4ccccc4Cl)c3O2)cc1 (stereo not drawn) [4ad, N-(1-(2-chlorophenyl)-5-cyano-3-methyl-4-phenyl-1,4-dihydropyrano[2,3-c]-pyrazol-6-yl)-4-methylbenzenesulfonamide] | 77.4 to 78 | 52 | > 10 | > 10 | 64
6 | Cc1ccc(-n2nc(C)c3c2OC(NS(=O)(=O)c2ccc(C)cc2)=C(C#N)C3c2ccccc2)cc1 (stereo not drawn) [4ae, N-(5-cyano-3-methyl-4-phenyl-1-(p-tolyl)-1,4-dihydro-pyrano[2,3-c]-pyrazol-6-yl)-4-methylbenzenesulfonamide] | 142.5 to 143 | 79 | > 10 | > 10 | 78
7 | Cc1ccc(S(=O)(=O)NC2=C(C#N)C(c3ccccc3)c3c(C)nn(-c4ccc(F)cc4)c3O2)cc1 (stereo not drawn) [4ag, N-(5-cyano-1-(4-fluorophenyl)-3-methyl-4-phenyl-1,4-dihydropyrano[2,3-c]-pyrazol-6-yl)-4-methylbenzenesulfonamide] | 138.6 to 139.3 | 66 | > 10 | > 10 | 75
8 | Cc1ccc(C2C(C#N)=C(NS(=O)(=O)c3ccc(C)cc3)Oc3c2c(C)nn3-c2ccccc2)cc1 (stereo not drawn) [4b, N-(5-cyano-3-methyl-1-phenyl-4-(p-tolyl)-1,4-dihydropyrano[2,3-c]-pyrazol-6-yl)-4-methylbenzenesulfonamide] | 74.7 to 75 | 75 | > 10 | > 10 | 105
9 | Cc1ccc(S(=O)(=O)NC2=C(C#N)C(c3cccc(Cl)c3)c3c(C)nn(-c4ccccc4)c3O2)cc1 (stereo not drawn) [4c, N-(4-(3-chlorophenyl)-5-cyano-3-methyl-1-phenyl-1,4-dihydropyrano[2,3-c]-pyrazol-6-yl)-4-methylbenzenesulfonamide] | 68.4 to 69 | 40 | > 10 | 7.28 ± 0.64 | 69
10 | Cc1ccc(S(=O)(=O)NC2=C(C#N)C(c3ccc(Br)cc3)c3c(C)nn(-c4ccccc4)c3O2)cc1 (stereo not drawn) [4d, N-(4-(4-bromophenyl)-5-cyano-3-methyl-1-phenyl-1,4-dihydropyrano[2,3-c]-pyrazol-6-yl)-4-methylbenzenesulfonamide] | 101.6 to 102.3 | 77 | > 10 | > 10 | 89
11 | Cc1ccc(S(=O)(=O)NC2=C(C#N)C(c3ccc(F)cc3)c3c(C)nn(-c4ccccc4)c3O2)cc1 (stereo not drawn) [4e, N-(5-cyano-4-(4-fluorophenyl)-3-methyl-1-phenyl-1,4-dihydropyrano[2,3-c]-pyrazol-6-yl)-4-methylbenzenesulfonamide] | 113 to 113.5 | 74 | > 10 | > 10 | 76
12 | Cc1ccc(S(=O)(=O)NC2=C(C#N)C(c3cccc(Br)c3)c3c(C)nn(-c4ccccc4)c3O2)cc1 (stereo not drawn) [4f, N-(4-(3-bromophenyl)-5-cyano-3-methyl-1-phenyl-1,4-dihydropyrano[2,3-c]-pyrazol-6-yl)-4-methylbenzenesulfonamide] | 68.4 to 69.5 | 47 | > 10 | 8.83 ± 0.75 | 71
13 | Cc1ccc(S(=O)(=O)NC2=C(C#N)C(c3ccc(Cl)c(Cl)c3)c3c(C)nn(-c4ccccc4)c3O2)cc1 (stereo not drawn) [4g, N-(5-cyano-4-(3,4-dichlorophenyl)-3-methyl-1-phenyl-1,4-dihydropyrano[2,3-c]-pyrazol-6-yl)-4-methylbenzenesulfonamide] | – | 66 | > 10 | > 10 | 58
14 | Cc1ccc(S(=O)(=O)NC2=C(C#N)C(c3ccc(Br)cc3F)c3c(C)nn(-c4ccccc4)c3O2)cc1 (stereo not drawn) [4h, N-(4-(4-bromo-2-fluorophenyl)-5-cyano-3-methyl-1-phen-yl-1,4-dihydropyrano[2,3-c]-pyrazol-6-yl)-4-methylbenzenesulfonamide] | 73.6 to 77.4 | 70 | > 10 | > 10 | 83
15 | COc1ccc(C2C(C#N)=C(NS(=O)(=O)c3ccc(C)cc3)Oc3c2c(C)nn3-c2ccccc2)cc1 (stereo not drawn) [4i, N-(5-cyano-4-(4-methoxyphenyl)-3-methyl-1-phenyl-1,4-dihydropyrano[2,3-c]-pyrazol-6-yl)-4-methylbenzenesulfonamide] | 145.2 to 146 | 69 | > 10 | > 10 | 60
16 | Cc1ccc(S(=O)(=O)NC2=C(C#N)C(c3cccnc3)c3c(C)nn(-c4ccccc4Cl)c3O2)cc1 (stereo not drawn) [4t, N-(1-(2-chlorophenyl)-5-cyano-3-methyl-4-(pyridin-3-yl)-1,4-dihydropyrano[2,3-c]-pyrazol-6-yl)-4-methylbenzenesulfonamide] | – | 46 | > 10 | 8.28 ± 0.89 | 65
17 | COc1ccc(S(=O)(=O)NC2=C(C#N)C(c3cccc(OC)c3)c3c(C)nn(-c4ccccc4Cl)c3O2)cc1 (stereo not drawn) [4y, N-(1-(2-chlorophenyl)-5-cyano-4-(3-methoxyphenyl)-3-methyl-1,4-dihydropyrano[2,3-c]-pyrazol-6-yl)-4-methoxybenzenesulfonamide] | – | 54 | > 10 | > 10 | 73
18 | COc1cccc(C2C(C#N)=C(NS(=O)(=O)c3ccccc3[N+](=O)[O-])Oc3c2c(C)nn3-c2ccccc2Cl)c1 (stereo not drawn) [4z, N-(1-(2-chlorophenyl)-5-cyano-4-(3-methoxyphenyl)-3-methyl-1,4-dihydropyrano[2,3-c]-pyrazol-6-yl)-2-nitrobenzenesulfonamide] | – | 53 | > 10 | > 10 | 60
